Measurements reported in patent US20240102016A1, “APPLICATION OF VEGFR GENE EXPRESSION INHIBITOR IN PREPARING PREPARATION OR AS PREPARATION FOR TREATING PSORIASIS” (priority 2022, published 2024).

Assays:
Format in all cases: in vivo
[1] = test system: RASGRP1+T cells and IL-17A+T cells; assay: Flow cytometry of RASGRP1+T cells and IL-17A+T cells in skin tissues of psoriatic mice; details: skin smeared with SU5205
Excerpt: (§1) In the embodiment of the disclosure, psoriatic mice coated with VEGFR inhibitors are constructed as follows: dissolving the VEGFR inhibitor SU5205 in dimethyl sulfoxide (DMSO) solution to prepare stock solution, diluting the stock solution with cyclodextrin, and coating the stock solution with a concentration of […] (referred to a daily dosage per kilogram of body weight of the psoriatic mice) on the psoriatic mice. 7-8-week wild-type mice are taken with back hair shaved and an exposed skin area of 2 cm×2 cm. 150 μL of the VEGFR inhibitor solution is coated on the skin surface. The normal control mice are coated with control reagent (with 150 μL of DMSO and cyclodextrin). The psoriatic mice and the normal control mice are respectively coated with Imiquimod (IMQ) cream or control reagent VAS on the exposed skin in 4 h later of the above operation.
(§2) In the embodiment of the disclosure, the psoriatic mice subcutaneously injected with VEGF are constructed as follows: dissolving VEGF165 protein in DMSO solution to prepare stock solution, diluting the stock solution with cyclodextrin, and smearing the mice with the stock solution with a concentration of […]. 7-8-week wild-type mice are taken with back hair shaved and an exposed skin area of 2 cm×2 cm. 100 μL of the VEGF165 solution is injected subcutaneously the skin surface of the mice. […]

[2] = test system: IMQ-induced psoriatic mice; assay: H&E staining of skin sections and PASI scores in IMQ-induced psoriatic mice; details: skin smeared with SU5205, 10 kg/kg/d, 150 μL, 4 h before IMQ cream; compared with the IMQ-induced mice
Excerpt: as §1, §2

[3] = test system: RASGRP1 downstream pathway; assay: Western blot of RASGRP1 downstream pathway proteins in skin tissues of psoriatic mice; details: skin smeared with SU5205; compared with the IMQ-induced mice
Excerpt: as §1
In the embodiment of the disclosure, the psoriatic mice subcutaneously injected with VEGF are constructed as follows: dissolving VEGF165 protein in DMSO solution to prepare stock solution, diluting the stock solution with cyclodextrin, and smearing the mice with the stock solution with a concentration of […]. 7-8-week wild-type mice are taken with back hair shaved and an exposed skin area of 2 cm×2 cm. 100 μL of the VEGF165 solution is injected subcutaneously the skin surface of the mice. The normal control mice are injected with control reagent subcutaneously (with 100 μL of DMSO and cyclodextrin). The psoriatic mice subcutaneously injected with VEGF165, and the normal control mice are respectively smeared IMQ cream or control reagent VAS on the exposed skin in 4 h later of the injections.

## O=C1Nc2ccccc2/C1=C/c1ccc(F)cc1 [SU5205]
[1]
  IL-17A+T cells in skin tissues: decrease significantly
  Rasgrp1+T cells in skin tissues: decrease significantly
[2]
  psoriasis phenotypes (dorsal skin thickness, erythema, scaling; H&E staining and PASI scores): significantly reduced
[3]
  active protein level of IL-1β in skin tissues: significantly lower
  active protein level of NF-κB in skin tissues: significantly reduced
  active protein level of phosphorylated AKT in skin tissues: significantly reduced
